Results taken from patent publication US20260356817A1, “AMINOPYRIMIDINE AND AMINOTRIAZINE DERIVATIVES AS MYC PROTEIN MODULATORS” (Sanford Burnham Prebys Medical Discovery Institute, priority 2022, published 2026).
Like-named read-outs stand apart in the source and are kept apart here.

Tested on: Myc
Test: Myc inhibition assay: Myc expression per cell by anti-Myc immunofluorescence, high-content imaging
Type: cell-based, human (patient-derived medulloblastoma xenograft cells)
Conditions: medulloblastoma PDX cells, 4 h
Summary of the method: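 Cells from Myc-driven medulloblastoma patient-derived orthotopic xenografts, propagated only in NSG mouse cerebellum, were dissociated and plated in serum-free medium. After overnight recovery, compounds were applied for 4 hours; cells were then fixed, stained for Myc and DAPI, and per-cell Myc quantified by high-content imaging to derive IC50.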

[1] = Table 1, read-out: IC50 (Myc inhibition)
[2] = Table 2, read-out: MYC Inhibition IC50

SMILES	IC50 [1] [µM]	IC50 [2] [µM]
CC(=O)Nc1cccc(Nc2nccc(-c3ccc4[nH]cnc4c3)n2)c1 [Compound 2, N-(3-((4-(1H-benzo[d]imidazol-5-yl)pyrimidin-2-yl)amino)phenyl)acetamide]	0.2 to 1	0.2 to 1
O=C(O)c1cccc(Nc2nccc(-c3ccnc(O)c3)n2)c1 [Compound 196, 3-((4-(2-hydroxypyridin-4-yl)pyrimidin-2-yl)amino)benzoic acid]	10 to 100	10 to 100
COc1nccc(-c2ccnc(Nc3ccccc3)n2)n1 [Compound 163, 2′-Methoxy-N-phenyl-[4,4′-bipyrimidin]-2-amine]	10 to 100	10 to 100
O=C1CNCCN1c1cccc(Nc2nccc(-c3ccc4[nH]cnc4c3)n2)c1 [Compound 63, 1-(3-((4-(1H-benzo[d]imidazol-5-yl)pyrimidin-2-yl)amino)phenyl)piperazin-2-one]	1 to 10	1 to 10
FC(F)(F)c1ccc(Nc2nccc(-c3ccc4[nH]cnc4c3)n2)cc1 [Compound 266, 4-(1H-benzo[d]imidazol-5-yl)-N-(4-(trifluoromethyl)phenyl)pyrimidin-2-amine]	1 to 10	1 to 10
Oc1cc(-c2ccnc(Nc3ccc(F)c(F)c3)n2)ccn1 [Compound 209, 4-(2-((3,4-difluorophenyl)amino)pyrimidin-4-yl)pyridin-2-ol]	1 to 10	1 to 10
CC(C)c1ccccc1Nc1nccc(-c2ccc3[nH]cnc3c2)n1 [Compound 64, 4-(1H-benzo[d]imidazol-5-yl)-N-(2-isopropylphenyl)pyrimidin-2-amine]	1 to 10	1 to 10
Oc1cncc(-c2ccnc(Nc3ccccc3)n2)c1 [Compound 219, 5-(2-(phenylamino)pyrimidin-4-yl)pyridin-3-ol]	1 to 10	1 to 10
FC(F)(F)c1cc(Nc2nccc(-c3ccc4[nH]cnc4c3)n2)ccc1Cl [Compound 89, 4-(1H-benzo[d]imidazol-5-yl)-N-(4-chloro-3-(trifluoromethyl)phenyl)pyrimidin-2-amine]	1 to 10	1 to 10
Cc1ccc(C)n1-c1cccc(Nc2nccc(-c3ccc4[nH]cnc4c3)n2)c1 [Compound 4, 4-(1H-benzo[d]imidazol-5-yl)-N-(3-(2,5-dimethyl-1H-pyrrol-1-yl)phenyl)pyrimidin-2-amine]	1 to 10	1 to 10
CN(c1ccccc1)c1nccc(-c2cncc(O)c2)n1 [Compound 218, 5-(2-(methyl(phenyl)amino)pyrimidin-4-yl)pyridin-3-ol]	10 to 100	10 to 100
COc1ccc(Nc2ccnc(Nc3cccc(F)c3)n2)cn1 [Compound 108, N^2-(3-fluorophenyl)-N^4-(6-methoxypyridin-3-yl)pyrimidine-2,4-diamine]	1 to 10	1 to 10
Oc1cc(-c2ccnc(Nc3cc(C(F)(F)F)ccn3)n2)ccn1 [Compound 158, 4-(2-((4-(trifluoromethyl)pyridin-2-yl)amino)pyrimidin-4-yl)pyridin-2-ol]	10 to 100	10 to 100
c1coc(CNc2nccc(-c3ccc4[nH]cnc4c3)n2)c1 [Compound 85, 4-(1H-benzo[d]imidazol-5-yl)-N-(furan-2-ylmethyl)pyrimidin-2-amine]	1 to 10	1 to 10
CCN(CC)C(=O)c1cccc(Nc2nccc(-c3ccc4[nH]cnc4c3)n2)c1 [Compound 19, 3-((4-(1H-benzo[d]imidazol-5-yl)pyrimidin-2-yl)amino)-N,N-diethylbenzamide]	0.2 to 1	0.2 to 1
COc1ccc(Oc2ccnc(Nc3cccc(C(F)(F)F)c3)n2)cn1 [Compound 109, 4-((6-methoxypyridin-3-yl)oxy)-N-(3-(trifluoromethyl)phenyl)pyrimidin-2-amine]	1 to 10	1 to 10
COc1cc(Nc2ccnc(Nc3cccc(F)c3)n2)ccn1 [Compound 122, N^2-(3-fluorophenyl)-N^4-(2-methoxypyridin-4-yl)pyrimidine-2,4-diamine]	1 to 10	1 to 10
CCC(=O)Nc1cccc(Nc2nccc(-c3ccc4[nH]cnc4c3)n2)c1 [Compound 15, N-(3-((4-(1H-benzo[d]imidazol-5-yl)pyrimidin-2-yl)amino)phenyl)propionamide]	0.2 to 1	0.2 to 1
c1cc(Nc2nccc(-c3ccc4[nH]cnc4c3)n2)cc(-n2cccn2)c1 [Compound 8, N-(3-(1H-pyrazol-1-yl)phenyl)-4-(1H-benzo[d]imidazol-5-yl)pyrimidin-2-amine]	< 0.2	< 0.2
Nc1ncc(-c2ccnc(Nc3cccc(C(F)(F)F)c3)n2)s1 [Compound 119, 5-(2-((3-(Trifluoromethyl)phenyl)amino)pyrimidin-4-yl)thiazol-2-amine]	< 0.2	< 0.2
c1ccc(-n2cc(Nc3nccc(-c4ccc5[nH]cnc5c4)n3)cn2)nc1 [Compound 35, 4-(1H-benzo[d]imidazol-5-yl)-N-(1-(pyridin-2-yl)-1H-pyrazol-4-yl)pyrimidin-2-amine]	< 0.2	< 0.2
Fc1cccc(Nc2nccc(-c3cnc4nc[nH]c4c3)n2)c1 [Compound 151, N-(3-fluorophenyl)-4-(1H-imidazo[4,5-b]pyridin-6-yl)pyrimidin-2-amine]	< 0.2	< 0.2
Cc1cc(Nc2nccc(-c3cnc4nc[nH]c4c3)n2)ccc1F [Compound 135, N-(4-fluoro-3-methylphenyl)-4-(1H-imidazo[4,5-b]pyridin-6-yl)pyrimidin-2-amine]	< 0.2	< 0.2
Cc1cc(C)cc(Nc2nccc(-c3ccc4[nH]cnc4c3)n2)c1 [Compound 16, 4-(1H-benzo[d]imidazol-5-yl)-N-(3,5-dimethylphenyl)pyrimidin-2-amine]	< 0.2	< 0.2
CCS(=O)(=O)c1cccc(Nc2nccc(-c3ccc4[nH]cnc4c3)n2)c1 [Compound 5, 4-(1H-benzo[d]imidazol-5-yl)-N-(3-(ethylsulfonyl)phenyl)pyrimidin-2-amine]	< 0.2	< 0.2
Oc1ccnc(-c2ccnc(Nc3cccc(F)c3)n2)c1 [Compound 182, 2-(2-((3-fluorophenyl)amino)pyrimidin-4-yl)pyridin-4-ol]	1 to 10	1 to 10
NC(=O)c1ccc(Nc2nccc(-c3ccc4[nH]cnc4c3)n2)cc1 [Compound 73, 4-((4-(1H-benzo[d]imidazol-5-yl)pyrimidin-2-yl)amino)benzamide]	1 to 10	1 to 10
Oc1cc(-c2ccnc(Nc3cncc(F)c3)n2)ccn1 [Compound 145, 4-(2-((5-fluoropyridin-3-yl)amino)pyrimidin-4-yl)pyridin-2-ol]	1 to 10	1 to 10

Continued, values first:

IC50 [1] [µM]	IC50 [2] [µM]	SMILES
10 to 100	10 to 100	COc1ccc(-c2ccnc(N(C)c3ccccc3)n2)cn1 [Compound 223, 4-(6-methoxypyridin-3-yl)-N-methyl-N-phenylpyrimidin-2-amine]
< 0.2	< 0.2	Cn1cnc2cc(-c3ccnc(Nc4cccc(C(F)(F)F)c4)n3)ccc21 [Compound 95, 4-(1-methyl-1H-benzo[d]imidazol-5-yl)-N-(3-(trifluoromethyl)phenyl)pyrimidin-2-amine]
1 to 10	1 to 10	NCCOc1cccc(Nc2nccc(-c3ccnc(O)c3)n2)c1 [Compound 120, 4-(2-((3-(2-aminoethoxy)phenyl)amino)pyrimidin-4-yl)pyridin-2-ol]
< 0.2	< 0.2	Nc1cccc(Nc2nccc(-c3ccc4nc[nH]c4c3)n2)c1 [Compound 275, N1-(4-(1H-benzo[d]imidazol-6-yl)pyrimidin-2-yl)benzene-1,3-diamine]
10 to 100	10 to 100	COc1ccc(-c2ccnc(Nc3cccc(F)c3)n2)nc1 [Compound 174, N-(3-fluorophenyl)-4-(5-methoxypyridin-2-yl)pyrimidin-2-amine]
1 to 10	1 to 10	COc1cc(-c2ccnc(Nc3ccncc3)n2)ccn1 [Compound 197, 4-(2-methoxypyridin-4-yl)-N-(pyridin-4-yl)pyrimidin-2-amine]
0.2 to 1	0.2 to 1	Fc1ccc(Nc2nccc(-c3ccc4[nH]cnc4c3)n2)cc1 [Compound 81, 4-(1H-benzo[d]imidazol-5-yl)-N-(4-fluorophenyl)pyrimidin-2-amine]
0.2 to 1	0.2 to 1	Oc1ncc(-c2ccnc(Nc3cccc(C(F)(F)F)c3)n2)s1 [Compound 144, 5-(2-((3-(trifluoromethyl)phenyl)amino)pyrimidin-4-yl)thiazol-2-ol]
1 to 10	1 to 10	Clc1cc(Cl)cc(Nc2nccc(-c3ccc4[nH]cnc4c3)n2)c1 [Compound 49, 4-(1H-benzo[d]imidazol-5-yl)-N-(3,5-dichlorophenyl)pyrimidin-2-amine]
0.2 to 1	0.2 to 1	CC(C)(C)c1cccc(Nc2nccc(-c3ccc4[nH]cnc4c3)n2)c1 [Compound 87, 4-(1H-benzo[d]imidazol-5-yl)-N-(3-(tert-butyl)phenyl)pyrimidin-2-amine]
10 to 100	10 to 100	COc1cc(-c2ccnc(Oc3ccccc3)n2)ccn1 [Compound 235, 4-(2-methoxypyridin-4-yl)-2-phenoxypyrimidine]
0.2 to 1	0.2 to 1	NCCCOc1cccc(Nc2nccc(-c3ccc4[nH]cnc4c3)n2)c1 [Compound 91, N-(3-(3-aminopropoxy)phenyl)-4-(1H-benzo[d]imidazol-5-yl)pyrimidin-2-amine]
< 0.2	< 0.2	Oc1cccc(Nc2nccc(-c3ccc4[nH]cnc4c3)n2)c1 [Compound 90, 3-((4-(1H-benzo[d]imidazol-5-yl)pyrimidin-2-yl)amino)phenol]
1 to 10	1 to 10	COc1cccc(-c2ccnc(Nc3cccc(Cl)c3)n2)c1 [Compound 249, N-(3-chlorophenyl)-4-(3-methoxyphenyl)pyrimidin-2-amine]
